Data published in US6573271B2, “Method of preventing proliferation of retinal pigment epithelium by retinoic acid receptor agonists” (John Hopkins University School of Medicine, priority 1995, dated 2003).

Assays:
RPE cells = test: RPE cell morphology after 10 days in retinoid; format: cell-based, human; conditions: 1 μm, 5% serum, on plastic
retinas of the rabbits = test: Ocular toxicity after single intravitreous injection, histopathology of retina; format: in vivo, rabbit; conditions: single intravitreous injection of 100 μg, two weeks after injection
Description: The rabbits were killed two weeks after injection.

[1] = system: rabbit cell injection model of PVR; test: Rabbit cell injection model of PVR (RPE cells), intravitreous injection of retinoids; format: in vivo; conditions: for Any RD (%) / Total RD (%): 28 Days
Procedure: Briefly, pigmented rabbits were anesthetized with a subcutaneous injection of 5 mg/kg of xylazine and 25 mg/kg of ketamine, and the pupil of one eye was dilated with 2½% phenylephrine. Under direct observation 5×10^5 RPE cells were injected into the vitreous cavity just anterior to the optic nerve. […] .
Rabbits were examined by indirect ophthalmoscopy on days 7, 14 and 28 and traction retinal detachments were graded. […] . The localized clouds decreased in size and cleared over 2 to 3 weeks. There were no visible changes in the retina. […] .
It was felt that the hair loss and possibly the loss of appetite and death were due to systemic toxicity from drug that had gotten out of the eye. […] . None of the rabbits experienced hair loss and none died; their appetites appeared to be normal.

human RPE cells = test: [3H]thymidine incorporation / proliferation of cultured human RPE cells
Description: Primary cultures of human retinal pigment epithelium (RPE) cells were established from eyes obtained from the Old Dominion Eye Bank (Richmond, Va.) or the Eye Bank of Maryland (Baltimore, Md.) using the technique described in P. A. Campochiaro, et al., Invest.
For [3H]thymidine incorporation, RPE cells at passage 3 or 4 were lightly trypsinized and plated in 16-mm wells of 24-well plates. The transfected cells were allowed to attach overnight and then the media containing 5% fetal bovine serum (FBS) were supplemented with retinoids or vehicle alone. Stock solutions (10^−3M) of retinoids were prepared in dimethylsulfoxide (DMSO) and stored as frozen aliquots until used; the highest final concentration of DMSO was 0.1% and was also used for control cultures. The media containing freshly prepared retinoids were changed every three days. At 7 or 10 days 2 μCi/ml of [^3H]thymidine (specific activity, 6.7 Ci/mM; New England Nuclear, Boston, Mass.) was added to the cultures and incorporation was measured as previously described (Leschey, supra).
The potency of retinoid agonists for inhibition of serum stimulated DNA synthesis in human RPE cells was tested. […] The cells were shifted to serum-free media containing the same concentration of retinoid and then pulsed with 10% serum for 18 hours, after which [^3H]thymidine incorporation was measured. Thymidine incorporation for cells grown in control medium was used to calculate the percent inhibition of thymidine incorporation induced by four concentrations of each retinoid (each concentration tested in triplicate) which were then used to generate each line.

RXRα = target: T1, RXRα (Homo sapiens, UniProt P19793); test: Transactivation, ER/RXR-α hybrid receptor + ERE-CAT reporter cotransfected in HeLa cells
T1 sequence (P19793 227-458 limits assumed): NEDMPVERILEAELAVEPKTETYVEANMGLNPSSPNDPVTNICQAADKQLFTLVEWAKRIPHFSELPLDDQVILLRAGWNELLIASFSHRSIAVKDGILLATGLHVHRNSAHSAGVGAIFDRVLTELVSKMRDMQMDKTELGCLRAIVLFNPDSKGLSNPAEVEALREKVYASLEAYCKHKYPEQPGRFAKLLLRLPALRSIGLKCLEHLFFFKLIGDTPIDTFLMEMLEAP

RARγ = target: T2, RARγ (Homo sapiens, UniProt P13631); test: Transactivation, ER/RAR-γ hybrid receptor + ERE-CAT reporter cotransfected in HeLa cells
T2 sequence (P13631 185-419 limits assumed): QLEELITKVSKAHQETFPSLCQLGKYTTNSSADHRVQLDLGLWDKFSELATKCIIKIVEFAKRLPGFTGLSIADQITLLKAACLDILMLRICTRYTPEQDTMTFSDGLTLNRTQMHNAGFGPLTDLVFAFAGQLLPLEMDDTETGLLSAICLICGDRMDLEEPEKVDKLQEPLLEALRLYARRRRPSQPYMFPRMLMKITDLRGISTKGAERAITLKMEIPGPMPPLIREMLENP

RARβ = target: T3, RARβ (Homo sapiens, UniProt P10826); test: Transactivation, ER/RAR-β hybrid receptor + ERE-CAT reporter cotransfected in HeLa cells
T3 sequence (P10826 183-417 limits assumed): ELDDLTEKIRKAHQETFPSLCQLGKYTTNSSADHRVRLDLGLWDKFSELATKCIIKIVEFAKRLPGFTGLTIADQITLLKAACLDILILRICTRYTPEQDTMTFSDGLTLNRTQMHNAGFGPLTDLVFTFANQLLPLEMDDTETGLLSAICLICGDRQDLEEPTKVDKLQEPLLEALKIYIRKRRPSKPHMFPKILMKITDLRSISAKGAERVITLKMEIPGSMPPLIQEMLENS

[2] = 100 μg intravitreous, two injections (day 1 and day 2 after cell injection)
[3] = 100 μg intravitreous, two injections
[4] = 100 μg, single intravitreous injection
[5] = Homo sapiens, RPE, read-out: Percent Inhibition of [3H]thymidine incorporation in RPE cells

In the case of `C/C(=C\c1cc(C(=O)O)cs1)c1cc2c(cc1C)C(C)(C)CCC2(C)C` [Compound 701, 2-[(E)-2-(5,6,7,8-tetrahydro-3,5,5,8,8-pentamethylnaphthaleen-2-yl)propen-1-yl]thiophene-4-carboxylic acid], the “RPE cell morphology / cell overgrowth” value (RPE cells) is reported as “failed to prevent cell overgrowth”, the “inner retinal edema, histopathology” value (retinas of the rabbits) is reported as “a few focal areas of inner retinal edema” and the “retinal necrosis, histopathology” value (retinas of the rabbits) is reported as “a few focal areas of retinal necrosis”. For the same molecule, the “Partial RD at 14 Days (number of eyes)” value [1, 2] was 3, the “Partial RD at 28 Days (number of eyes)” value [1, 2] was 2 and the “Total RD at 14 Days (number of eyes)” value [1, 2] was 3. The “Total RD at 28 Days (number of eyes)” value [1, 2] was 5, the “Any RD (%)” value [1, 3] was 87.5% and the “Total RD (%)” value [1, 3] was 62.5%. For the same molecule, the “Partial RD at 14 Days (number of eyes)” value [1, 4] was 2, the “Partial RD at 28 Days (number of eyes)” value [1, 4] was 1 and the “Total RD at 14 Days (number of eyes)” value [1, 4] was 2. For the same molecule, the “Total RD at 28 Days (number of eyes)” value [1, 4] was 3, the “Any RD (%)” value [1, 4] was 80% and the “Total RD (%)” value [1, 4] was 60%. The “frequency and severity of traction retinal detachments versus vehicle” value ([1]; initial group, intravitreous injections of 100 μg) was “did not differ from controls”, the “frequency and severity of retinal detachments versus control” value ([1]; single intravitreous injection one day after RPE cell injection) was “not statistically different from controls” and the inhibition at 0.05 µM (human RPE cells; [5]) was 12%. For the same molecule, the inhibition at 0.1 µM (human RPE cells; [5]) was 48.8%, the inhibition at 1 µM (human RPE cells; [5]) was 74.6% and the “inhibition of RPE [3H]thymidine incorporation” value (human RPE cells; incubation for 7 or 10 days) was “much less effective inhibitor”. It also gave an EC50 (RXRα) of 0.1 µM, an EC50 (RARγ) of 1 µM and an EC50 (RARβ) of 3 µM.
